Results as given in DBAASP.
Converted amounts (≈) assume the structure as drawn.

Assays:
Assay in all cases: ≥ marks a high value that may be exact or a test limit, other limits are often not marked, values filed in µg/mL are converted to µM
[1] = test system: Salmonella enterica MTCC 9844
[2] = test system: Staphylococcus aureus MTCC 3160
[3] = test system: Alkalihalobacillus alcalophilus MTCC 860
[4] = test system: Klebsiella oxytoca MTCC 2275
[5] = test system: Vibrio cholerae MTCC 3904
[6] = test system: Haemophilus influenzae MTCC 621
[7] = test system: Corynebacterium glutamicum MTCC 2679
[8] = test system: Shigella flexneri MTCC 1457
[9] = test system: Citrobacter koseri MTCC 1657
[10] = test system: Proteus vulgaris MTCC 1771
[11] = test system: Salmonella enterica subsp. enterica serovar Typhimurium ATCC 14028
[12] = test system: Stenotrophomonas maltophilia MTCC 1890
[13] = test system: Pluralibacter gergoviae MTCC 3826
[14] = test system: Bordetella bronchiseptica MTCC 6837
[15] = test system: Enterococcus faecalis MTCC 439
[16] = test system: Alcaligenes faecalis MTCC 1937
[17] = test system: Shigella boydii MTCC 11947
[18] = test system: Citrobacter freundii MTCC 1658
[19] = test system: Acinetobacter baumannii MTCC 9829
[20] = test system: Proteus mirabilis MTCC 3158
[21] = test system: Klebsiella aerogenes MTCC 111
[22] = test system: Staphylococcus haemolyticus MTCC 3383
[23] = test system: Klebsiella pneumoniae MTCC 7407
[24] = test system: Escherichia coli K12 MG1655
[25] = test system: Pseudomonas aeruginosa MTCC 3542
[26] = test system: Pseudomonas aeruginosa K799
[27] = test system: Staphylococcus aureus ATCC 25923
[28] = test system: Salmonella enterica subsp. enterica serovar Typhimurium ATCC 14028s
[29] = test system: Escherichia coli UB1005
[30] = test system: Staphylococcus epidermidis
[31] = test system: Enterococcus faecalis ATCC 29212
[32] = test system: Listeria monocytogenes
[33] = test system: Bacillus cereus ATCC 14579
[34] = test system: Salmonella enterica ATCC H9812
[35] = test system: Proteus mirabilis ATCC 35659
[36] = test system: Escherichia coli ATCC 25922
[37] = test system: Bacillus amyloliquefaciens ATCC 23842
[38] = test system: Staphylococcus aureus ATCC 29213
[39] = test system: Bacillus subtilis ATCC 6051
[40] = test system: Enterococcus faecalis 1F-1
[41] = test system: Bacillus licheniformis ATCC 14580
[42] = test system: Enterococcus faecium 5F-10
[43] = test system: Pseudomonas aeruginosa PAO1

Row | SMILES | MIC [1] [µM] | MIC [2] [µM] | MIC [3] [µM] | MIC [4] [µM] | MIC [5] [µM] | MIC [6] [µM] | MIC [7] [µM] | MIC [8] [µM] | MIC [9] [µM] | MIC [10] [µM] | MIC [11] [µM] | MIC [12] [µM] | MIC [13] [µM] | MIC [14] [µM] | MIC [15] [µM] | MIC [16] [µM] | MIC [17] [µM] | MIC [18] [µM] | MIC [19] [µM] | MIC [20] [µM] | further results
1 | CC(C)C[C@H](NC(=O)[C@H](Cc1cnc[nH]1)NC(=O)[C@H](CC(N)=O)NC(=O)[C@H](Cc1c[nH]c2ccccc12)NC(=O)[C@H](CC(=O)O)NC(=O)[C@@H](N)CCC(=O)O)C(=O)NCC(=O)N[C@@H](C)C(=O)N[C@@H](C)C(=O)N[C@H](C(=O)N[C@@H](Cc1cnc[nH]1)C(=O)N[C@H](C(=O)N[C@@H](CC(C)C)C(=O)N[C@@H](CCCCN)C(=O)N[C@@H](Cc1cnc[nH]1)C(=O)N[C@H](C(=O)N[C@@H](Cc1ccc(O)cc1)C(=O)N[C@@H](CCCCN)C(=O)O)C(C)C)[C@@H](C)O)C(C)C [EDWNHLGAAVHTLKHVYK] | ≥ 60.4 | ≥ 60.4 | ≥ 60.4 | ≥ 60.4 | ≥ 60.4 | ≥ 60.4 | ≥ 60.4 | ≥ 60.4 | ≥ 60.4 | ≥ 60.4 | > 60.4 | ≥ 60.4 | ≥ 60.4 | ≥ 60.4 | ≥ 60.4 | ≥ 60.4 | ≥ 60.4 | ≥ 60.4 | ≥ 60.4 | ≥ 60.4 | MIC [21]: ≥ 60.4 µM; MIC [22]: ≥ 60.4 µM; MIC [23]: ≥ 60.4 µM; MIC [24]: ≥ 60.4 µM; MIC [25]: ≥ 60.4 µM
2 | CC(C)C[C@H](NC(=O)[C@H](Cc1cnc[nH]1)NC(=O)[C@H](CCCN=C(N)N)NC(=O)[C@H](C)NC(=O)[C@H](CCCN=C(N)N)NC(=O)[C@H](Cc1cnc[nH]1)NC(=O)[C@H](C)NC(=O)[C@@H](NC(=O)[C@H](Cc1cnc[nH]1)NC(=O)[C@H](CCCCN)NC(=O)[C@H](CC(C)C)NC(=O)[C@H](CO)NC(=O)[C@H](C)NC(=O)[C@H](CO)NC(=O)[C@H](CC(C)C)NC(=O)[C@@H](N)CCCCN)C(C)C)C(=O)N[C@@H](CO)C(=O)O [KLSASLKHVAHRARHLS] | ≥ 67 | ≥ 67 | ≥ 67 | ≥ 67 | ≥ 67 | ≥ 67 | ≥ 67 | ≥ 67 | ≥ 67 | ≥ 67 | > 67 | ≥ 67 | ≥ 67 | ≥ 67 | ≥ 67 | ≥ 67 | ≥ 67 | ≥ 67 | ≥ 67 | ≥ 67 | MIC [21]: ≥ 67 µM; MIC [22]: ≥ 67 µM; MIC [23]: ≥ 67 µM; MIC [24]: ≥ 67 µM; MIC [25]: ≥ 67 µM
3 | CC[C@H](C)[C@H](NC(=O)[C@H](CCCN=C(N)N)NC(=O)[C@H](CS)NC(=O)[C@H](CC(C)C)NC(=O)[C@H](CCCN=C(N)N)NC(=O)[C@@H](N)CCCN=C(N)N)C(=O)N[C@H](C(=O)N[C@H](C(=O)N[C@H](C(=O)N[C@@H](CCCN=C(N)N)C(=O)N[C@H](C(=O)N[C@@H](CS)C(=O)N[C@@H](CCCN=C(N)N)C(=O)N[C@@H](CCCN=C(N)N)C(=O)O)C(C)C)[C@@H](C)CC)C(C)C)C(C)C [RRLCRIVVIRVCRR] |  |  |  |  |  |  |  |  |  |  |  |  |  |  |  |  |  |  |  |  | MIC [26]: 8.9 µM (≈ 16 µg/mL); MIC [27]: > 35.6 µM; MIC [28]: 17.8 µM (≈ 32 µg/mL); MIC [29]: 2.22 µM (≈ 4 µg/mL); MIC [30]: 2.22 µM (≈ 4 µg/mL); MIC [31]: 2.22 µM (≈ 4 µg/mL); MIC [32]: 0.278 µM (≈ 0.5 µg/mL)
4 | CC(C)C[C@H](NC(=O)[C@H](CC(C)C)NC(=O)[C@H](CCC(=O)O)NC(=O)[C@H](CC(=O)O)NC(=O)[C@@H](NC(=O)[C@@H](N)CCCN=C(N)N)C(C)C)C(=O)N[C@@H](CO)C(=O)O [RVDELLS] |  |  |  |  |  |  |  |  |  |  |  |  |  |  |  |  |  |  |  |  | MIC [33]: ≥ 154 µM; MIC [34]: ≥ 154 µM; MIC [35]: ≥ 154 µM; MIC [36]: > 154 µM; MIC [37]: ≥ 154 µM; MIC [38]: > 154 µM; MIC [39]: ≥ 154 µM; MIC [40]: ≥ 154 µM; MIC [41]: ≥ 154 µM; MIC [42]: ≥ 154 µM; MIC [43]: > 154 µM
